# Measurements as given in the NIST ThermoML archive (doi:10.1021/je020125e).
# Several values for one entry are separate records, joined by “and”; a condition that tells them apart may be missing. Identical values can stand only once. ± gives the expanded uncertainty stated by the source.
# Details: 101.33 kPa, Liquid, Hot wire method
structure (smiles),measurement,setting,value
"CC(C)C(C)C(C)C [2,3,4-trimethylpentane]",thermal conductivity,259.06 K,0.1127 ± 0.00078 W/m/K
same,thermal conductivity,259.29 K,0.1126 ± 0.00078 W/m/K
same,thermal conductivity,259.54 K,0.1125 ± 0.00078 W/m/K
same,thermal diffusivity,259.87 K,7.32e-08 ± 1.4e-09 m2/s
same,thermal diffusivity,260.45 K,7.32e-08 ± 1.4e-09 m2/s
same,thermal diffusivity,261.06 K,7.31e-08 ± 1.4e-09 m2/s
same,thermal conductivity,277.95 K,0.1083 ± 0.00076 W/m/K
same,thermal conductivity,278.19 K,0.1082 ± 0.00075 W/m/K
same,thermal conductivity,278.44 K,0.108 ± 0.00075 W/m/K
same,thermal diffusivity,278.74 K,6.91e-08 ± 1.3e-09 m2/s
same,thermal diffusivity,279.35 K,6.9e-08 ± 1.3e-09 m2/s
same,thermal diffusivity,279.93 K,6.87e-08 ± 1.3e-09 m2/s
same,thermal conductivity,297.33 K,0.1036 ± 0.00073 W/m/K
same,thermal conductivity,297.58 K,0.1035 ± 0.00072 W/m/K
same,thermal conductivity,297.84 K,0.1033 ± 0.00072 W/m/K
same,thermal diffusivity,298.16 K,6.57e-08 ± 1.2e-09 m2/s
same,thermal diffusivity,298.78 K,6.56e-08 ± 1.2e-09 m2/s
same,thermal diffusivity,299.4 K,6.54e-08 ± 1.2e-09 m2/s
same,thermal conductivity,315.53 K,0.09948 ± 0.0007 W/m/K
same,thermal conductivity,315.77 K,0.09926 ± 0.0007 W/m/K
same,thermal conductivity,316.03 K,0.09916 ± 0.0007 W/m/K
same,thermal diffusivity,316.35 K,6.19e-08 ± 1.2e-09 m2/s
same,thermal diffusivity,316.91 K,6.12e-08 ± 1.2e-09 m2/s
same,thermal diffusivity,317.54 K,6.12e-08 ± 1.2e-09 m2/s
same,thermal conductivity,331.87 K,0.0958 ± 0.00068 W/m/K
same,thermal conductivity,332.13 K,0.09569 ± 0.00068 W/m/K
same,thermal conductivity,332.39 K,0.09551 ± 0.00068 W/m/K
same,thermal diffusivity,332.69 K,5.9e-08 ± 1.1e-09 m2/s
same,thermal diffusivity,333.32 K,5.89e-08 ± 1.1e-09 m2/s
same,thermal diffusivity,333.91 K,5.84e-08 ± 1.1e-09 m2/s
"CC(C)C(C)C [2,3-dimethylbutane]",thermal conductivity,256.81 K,0.1128 ± 0.00092 W/m/K
same,thermal conductivity,257.19 K,0.1127 ± 0.00092 W/m/K
same,thermal conductivity,257.69 K,0.1125 ± 0.00092 W/m/K
same,thermal diffusivity,258.09 K,7.87e-08 ± 1.5e-09 m2/s
same,thermal diffusivity,258.98 K,7.85e-08 ± 1.5e-09 m2/s
same,thermal diffusivity,260.13 K,7.79e-08 ± 1.5e-09 m2/s
same,thermal conductivity,277.98 K,0.1061 ± 0.00087 W/m/K
same,thermal conductivity,278.38 K,0.1059 ± 0.00087 W/m/K
same,thermal conductivity,278.91 K,0.1057 ± 0.00087 W/m/K
same,thermal diffusivity,279.29 K,7.3e-08 ± 1.4e-09 m2/s
same,thermal diffusivity,280.19 K,7.27e-08 ± 1.4e-09 m2/s
same,thermal diffusivity,281.39 K,7.23e-08 ± 1.4e-09 m2/s
same,thermal conductivity,297.63 K,0.1 ± 0.00083 W/m/K
same,thermal conductivity,298.06 K,0.0999 ± 0.00082 W/m/K
same,thermal conductivity,298.6 K,0.09972 ± 0.00082 W/m/K
same,thermal diffusivity,298.95 K,6.8e-08 ± 1.3e-09 m2/s
same,thermal diffusivity,299.9 K,6.77e-08 ± 1.3e-09 m2/s
same,thermal diffusivity,301.09 K,6.74e-08 ± 1.3e-09 m2/s
same,thermal conductivity,318.11 K,0.09429 ± 0.00078 W/m/K
same,thermal conductivity,318.45 K,0.09416 ± 0.00078 W/m/K
same,thermal conductivity,319.06 K,0.09398 ± 0.00078 W/m/K
same,thermal diffusivity,319.63 K,6.39e-08 ± 1.2e-09 m2/s
same,thermal diffusivity,320.36 K,6.35e-08 ± 1.2e-09 m2/s
same,thermal diffusivity,321.67 K,6.31e-08 ± 1.2e-09 m2/s
same,thermal conductivity,336.29 K,0.08957 ± 0.00075 W/m/K
same,thermal conductivity,336.65 K,0.08944 ± 0.00075 W/m/K
same,thermal conductivity,337.3 K,0.08925 ± 0.00074 W/m/K
same,thermal diffusivity,337.85 K,6.04e-08 ± 1.2e-09 m2/s
same,thermal diffusivity,338.62 K,6.01e-08 ± 1.2e-09 m2/s
same,thermal diffusivity,339.96 K,5.97e-08 ± 1.2e-09 m2/s
"CCC(C)C(C)C (stereo unspecified) [2,3-dimethylpentane]",thermal conductivity,256.3 K,0.1178 ± 0.00096 W/m/K
same,thermal conductivity,256.7 K,0.1175 ± 0.00096 W/m/K
same,thermal diffusivity,256.93 K,8.19e-08 ± 1.6e-09 m2/s
same,thermal conductivity,256.95 K,0.1173 ± 0.00096 W/m/K
same,thermal diffusivity,257.7 K,8.09e-08 ± 1.6e-09 m2/s
same,thermal diffusivity,258.3 K,8.05e-08 ± 1.6e-09 m2/s
same,thermal conductivity,269.57 K,0.114 ± 0.00094 W/m/K
same,thermal conductivity,269.87 K,0.1137 ± 0.00093 W/m/K
same,thermal conductivity,270.12 K,0.1135 ± 0.00093 W/m/K
same,thermal diffusivity,270.24 K,7.8e-08 ± 1.5e-09 m2/s
same,thermal diffusivity,270.9 K,7.79e-08 ± 1.5e-09 m2/s
same,thermal diffusivity,271.49 K,7.72e-08 ± 1.5e-09 m2/s
same,thermal conductivity,284.74 K,0.1097 ± 0.00091 W/m/K
same,thermal conductivity,285.02 K,0.1093 ± 0.0009 W/m/K
same,thermal conductivity,285.27 K,0.1092 ± 0.0009 W/m/K
same,thermal diffusivity,285.38 K,7.51e-08 ± 1.5e-09 m2/s
same,thermal diffusivity,286.04 K,7.37e-08 ± 1.4e-09 m2/s
same,thermal diffusivity,286.63 K,7.35e-08 ± 1.4e-09 m2/s
same,thermal conductivity,296.31 K,0.1057 ± 0.00087 W/m/K
same,thermal conductivity,296.36 K,0.1063 ± 0.00088 W/m/K
same,thermal conductivity,296.65 K,0.106 ± 0.00088 W/m/K
same,thermal diffusivity,297 K,7.16e-08 ± 1.4e-09 m2/s
same,thermal diffusivity,297.68 K,7.1e-08 ± 1.4e-09 m2/s
same,thermal diffusivity,298.28 K,7.02e-08 ± 1.4e-09 m2/s
same,thermal conductivity,311.34 K,0.1022 ± 0.00084 W/m/K
same,thermal conductivity,311.66 K,0.102 ± 0.00084 W/m/K
same,thermal conductivity,311.93 K,0.1018 ± 0.00084 W/m/K
same,thermal diffusivity,311.97 K,6.79e-08 ± 1.3e-09 m2/s
same,thermal diffusivity,312.7 K,6.77e-08 ± 1.3e-09 m2/s
same,thermal diffusivity,313.33 K,6.76e-08 ± 1.3e-09 m2/s
same,thermal conductivity,321.3 K,0.09959 ± 0.00082 W/m/K
same,thermal conductivity,321.59 K,0.09937 ± 0.00082 W/m/K
same,thermal conductivity,321.85 K,0.09916 ± 0.00082 W/m/K
same,thermal diffusivity,321.91 K,6.53e-08 ± 1.3e-09 m2/s
same,thermal diffusivity,322.58 K,6.46e-08 ± 1.3e-09 m2/s
same,thermal diffusivity,323.18 K,6.43e-08 ± 1.2e-09 m2/s
same,thermal conductivity,331.96 K,0.097 ± 0.00082 W/m/K
same,thermal conductivity,332.21 K,0.09651 ± 0.00082 W/m/K and 0.09662 ± 0.00081 W/m/K
same,thermal diffusivity,332.5 K,6.07e-08 ± 1.2e-09 m2/s
same,thermal diffusivity,333.06 K,5.99e-08 m2/s and 6e-08 m2/s
same,thermal conductivity,343.12 K,0.09411 ± 0.0008 W/m/K
same,thermal conductivity,343.36 K,0.09373 ± 0.00079 W/m/K
same,thermal conductivity,343.59 K,0.09353 ± 0.00078 W/m/K
same,thermal diffusivity,343.64 K,5.78e-08 ± 1.1e-09 m2/s
same,thermal diffusivity,344.2 K,5.72e-08 ± 1.1e-09 m2/s
same,thermal diffusivity,344.73 K,5.72e-08 ± 1.1e-09 m2/s
